Like-named read-outs stand apart in the source and are kept apart here.
What was measured:
[1] = biological target: T1, TYK2 (Homo sapiens, UniProt P29597); assay: Kinobeads assay, TYK2 (competition binding in mixed Molt4/Ramos cell lysate, dot blot detection)
T1 construct: endogenous in cells; host or cells: Molt4 (ATCC CRL-1582) and Ramos (ATCC CRL-1596), mixed lysate 1:2
How it was run: (§1)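 JAK2 and TYK2 retained on Kinobeads (immobilized aminopyrido-pyrimidine ligand) from 1:2 Molt4:Ramos lysate (10 mg/mL) were quantified by antibody dot blot (Odyssey infrared) after 3 h cold incubation with compound. Nine-step 1:3 dilution series; IC50 calculated from curves.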

[2] = biological target: T2, JAK2 (Homo sapiens, UniProt O60674); assay: Kinobeads assay, JAK2 (competition binding in mixed Molt4/Ramos cell lysate, dot blot detection); details: read-out: JAK2 Band (Kinobeads assay potency, IC50)
T2 construct: endogenous in cells; host or cells: Molt4 (ATCC CRL-1582) and Ramos (ATCC CRL-1596), mixed lysate 1:2
T2 sequence (O60674 whole entry): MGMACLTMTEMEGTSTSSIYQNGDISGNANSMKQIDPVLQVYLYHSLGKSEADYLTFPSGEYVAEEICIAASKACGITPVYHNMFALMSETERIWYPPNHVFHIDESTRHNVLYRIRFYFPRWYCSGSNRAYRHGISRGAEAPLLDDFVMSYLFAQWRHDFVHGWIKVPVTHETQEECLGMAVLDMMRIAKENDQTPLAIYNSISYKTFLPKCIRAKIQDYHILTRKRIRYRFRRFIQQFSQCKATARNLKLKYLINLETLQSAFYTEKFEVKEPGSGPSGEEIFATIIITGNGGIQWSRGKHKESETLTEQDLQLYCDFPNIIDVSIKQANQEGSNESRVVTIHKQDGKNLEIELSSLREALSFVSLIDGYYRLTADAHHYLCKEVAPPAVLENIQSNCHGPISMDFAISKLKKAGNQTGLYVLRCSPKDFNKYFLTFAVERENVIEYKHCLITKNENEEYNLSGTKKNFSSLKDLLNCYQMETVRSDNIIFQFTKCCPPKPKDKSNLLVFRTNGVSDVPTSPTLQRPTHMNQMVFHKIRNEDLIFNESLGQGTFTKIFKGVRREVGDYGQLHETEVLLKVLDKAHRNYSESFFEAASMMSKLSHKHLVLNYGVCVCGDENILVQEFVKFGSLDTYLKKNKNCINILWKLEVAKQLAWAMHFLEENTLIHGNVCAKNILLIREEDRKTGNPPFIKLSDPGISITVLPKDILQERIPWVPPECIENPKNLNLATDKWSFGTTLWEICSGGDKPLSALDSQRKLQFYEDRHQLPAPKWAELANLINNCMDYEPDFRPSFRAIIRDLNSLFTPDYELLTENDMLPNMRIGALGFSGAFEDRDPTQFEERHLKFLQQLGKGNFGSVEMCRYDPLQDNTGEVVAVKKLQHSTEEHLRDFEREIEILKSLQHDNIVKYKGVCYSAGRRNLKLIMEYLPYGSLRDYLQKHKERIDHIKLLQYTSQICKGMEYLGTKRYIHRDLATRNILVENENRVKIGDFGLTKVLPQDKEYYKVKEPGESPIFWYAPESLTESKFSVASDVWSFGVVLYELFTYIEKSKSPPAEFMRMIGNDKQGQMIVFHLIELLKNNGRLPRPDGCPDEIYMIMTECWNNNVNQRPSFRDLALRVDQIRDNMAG
How it was run: as §1

[3] = Kinobeads assay, Molt4/Ramos lysate, read-out: TYK2 Band (Kinobeads assay potency, IC50)

T1 sequence (P29597 whole entry): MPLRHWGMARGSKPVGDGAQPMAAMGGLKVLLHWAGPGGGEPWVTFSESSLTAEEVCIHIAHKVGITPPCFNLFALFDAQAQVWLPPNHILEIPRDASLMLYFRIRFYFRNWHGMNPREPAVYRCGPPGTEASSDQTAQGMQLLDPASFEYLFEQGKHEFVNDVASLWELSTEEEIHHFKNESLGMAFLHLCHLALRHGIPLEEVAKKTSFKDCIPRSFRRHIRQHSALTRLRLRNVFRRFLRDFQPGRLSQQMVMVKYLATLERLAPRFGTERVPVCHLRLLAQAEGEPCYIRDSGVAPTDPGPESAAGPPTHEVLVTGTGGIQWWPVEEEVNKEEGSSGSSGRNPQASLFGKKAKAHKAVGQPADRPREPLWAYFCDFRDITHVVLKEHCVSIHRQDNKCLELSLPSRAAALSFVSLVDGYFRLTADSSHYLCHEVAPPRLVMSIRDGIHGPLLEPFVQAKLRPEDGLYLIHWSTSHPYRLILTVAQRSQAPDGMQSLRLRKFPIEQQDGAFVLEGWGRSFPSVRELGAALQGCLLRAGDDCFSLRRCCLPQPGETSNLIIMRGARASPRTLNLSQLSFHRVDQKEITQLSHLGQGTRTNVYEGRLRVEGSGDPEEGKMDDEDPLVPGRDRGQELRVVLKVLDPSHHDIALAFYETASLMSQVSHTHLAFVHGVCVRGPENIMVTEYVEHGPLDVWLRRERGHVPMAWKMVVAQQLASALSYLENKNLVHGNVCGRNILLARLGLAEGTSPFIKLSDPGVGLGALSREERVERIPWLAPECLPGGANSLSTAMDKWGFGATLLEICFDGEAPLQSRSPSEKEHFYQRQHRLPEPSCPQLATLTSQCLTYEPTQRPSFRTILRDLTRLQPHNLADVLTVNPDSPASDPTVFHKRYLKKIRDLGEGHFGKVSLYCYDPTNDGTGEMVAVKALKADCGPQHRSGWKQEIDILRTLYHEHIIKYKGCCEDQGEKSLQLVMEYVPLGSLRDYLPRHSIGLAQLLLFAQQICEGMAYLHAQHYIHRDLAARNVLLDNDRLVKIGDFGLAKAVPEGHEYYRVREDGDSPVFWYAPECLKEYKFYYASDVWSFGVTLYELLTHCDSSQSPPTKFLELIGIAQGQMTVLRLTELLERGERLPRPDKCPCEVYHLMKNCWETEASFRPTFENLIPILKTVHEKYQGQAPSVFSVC

| SMILES | IC50 [1, 3] | IC50 [2] | IC50 ([1]; read-out: TYK2 IC50) |
| --- | --- | --- | --- |
| CC(C)NC(=O)Cn1cc(Nc2ncc(F)c(NCc3c(Cl)ccc(Cl)c3F)n2)cn1 [Example I-82] | 0.01 to 0.1 µM | 0.1 to 1 µM | – |
| CN(C)S(=O)(=O)c1ccccc1CNc1nc(Nc2cnn(C)c2)ncc1Cl [Example I-474] | 0.1 to 1 µM | 0.1 to 1 µM | – |
| O=C(Cn1cc(Nc2nccc(NCc3c(F)cc(F)cc3F)n2)cn1)NCC(F)(F)F [Example I-86] | 0.01 to 0.1 µM | > 10 µM | – |
| CC(O)Cn1cc(Nc2ncc(Cl)c(NCc3ccccc3F)n2)cn1 (stereo not shown) [Example I-213] | 0.1 to 1 µM | 0.1 to 1 µM | – |
| CNC(=O)Cn1cc(Nc2ncc(F)c(NCc3c(F)ccc(OC)c3F)n2)cn1 [Example I-12] | 0.01 to 0.1 µM | 1 to 10 µM | – |
| CC1(C)COCCN1C(=O)Cn1cc(Nc2nccc(NCc3c(F)cc(F)cc3F)n2)cn1 [Example I-459] | 0.01 to 0.1 µM | > 10 µM | – |
| O=C(O)Cn1cc(Nc2ncc(Cl)c(NCc3cc(F)cc(C(F)(F)F)c3)n2)cn1 [Example I-275] | 0.1 to 1 µM | 1 to 10 µM | – |
| Cc1cnc(Nc2cnn(CC(=O)N3CCOCC3)c2)nc1NCc1c(F)ccc(F)c1F [Example I-423] | ≤ 0.01 µM | 0.1 to 1 µM | – |
| Cn1ncnc1Cn1cc(Nc2ncc(Cl)c(NCc3ccccc3)n2)cn1 [Example I-250] | 1 to 10 µM | 1 to 10 µM | – |
| CNS(=O)(=O)c1cccc(CNc2nc(Nc3cnn(C)c3)ncc2Cl)c1 [Example I-200] | 0.1 to 1 µM | 1 to 10 µM | – |
| O=C(Cn1cc(Nc2ncc(Cl)c(NCc3ccccc3)n2)cn1)N1CC2CCC1CN2 (stereo not shown) [Example I-194] | 0.01 to 0.1 µM | 0.1 to 1 µM | – |
| Fc1ccccc1CNc1nc(Nc2cn[nH]c2)ncc1Cl [Example I-369] | 0.1 to 1 µM | 0.1 to 1 µM | – |
| CS(=O)(=O)c1ccc(F)c(CNc2nc(Nc3cn[nH]c3)ncc2Cl)c1 [Example I-98] | 0.01 to 0.1 µM | 0.1 to 1 µM | – |
| Cc1ccc(F)c(CNc2nc(Nc3cnn(CC(=O)N(C)C)c3)ncc2Cl)c1F [Example I-283] | 0.01 to 0.1 µM | 1 to 10 µM | – |
| NC(=O)Cn1cc(Nc2ncc(Cl)c(NCc3c(F)cc(F)cc3F)n2)cn1 [Example I-387] | 0.01 to 0.1 µM | 1 to 10 µM | – |
| O=C(Cn1cc(Nc2nccc(NCc3c(F)cc(F)cc3F)n2)cn1)N1CCOCC1 [Example I-27] | 0.01 to 0.1 µM | 1 to 10 µM | – |
| CCNC(=O)Cn1cc(Nc2nccc(NCc3c(F)cc(F)cc3F)n2)cn1 [Example I-6, N-ethyl-2-(4-((4-((2,4,6-trifluorobenzyl)amino)pyrimidin-2-yl)amino)-1H-pyrazol-1-yl)acetamide] | 0.01 to 0.1 µM | 1 to 10 µM | – |
| Cn1cc(Nc2ncc(Cl)c(NCc3c(F)cccc3F)n2)cn1 [Example I-175] | 0.01 to 0.1 µM | 1 to 10 µM | – |
| CS(=O)(=O)c1ccc(F)cc1CNc1nc(Nc2cnn(CCO)c2)ncc1F [Example I-488] | 0.01 to 0.1 µM | 0.1 to 1 µM | – |
| NC(=O)Cn1cc(Nc2ncc(Cl)c(NCc3c(Cl)cccc3Cl)n2)cn1 [Example I-324] | 0.01 to 0.1 µM | 0.1 to 1 µM | – |
| Cc1cnc(Nc2cnn(CC(=O)NC(C)C)c2)nc1NCc1c(F)cc(F)cc1F [Example I-32] | ≤ 0.01 µM | 1 to 10 µM | – |
| N#Cc1cccc(CNc2nc(Nc3cnn(CC(=O)N4CCOCC4)c3)ncc2Cl)c1 [Example I-172] | 0.01 to 0.1 µM | 0.1 to 1 µM | – |

| SMILES | IC50 [1, 3] | IC50 [2] | IC50 ([1]; read-out: TYK2 IC50) |
| --- | --- | --- | --- |
| COc1ccc(F)c(CNc2ccnc(Nc3cnn(CC(=O)N[C@H](C)CO)c3)n2)c1F [Example I-124] | 0.01 to 0.1 µM | 1 to 10 µM | – |
| Cn1cc(Nc2nccc(NCc3c(F)cncc3F)n2)cn1 [Example I-148] | 0.01 to 0.1 µM | 1 to 10 µM | – |
| Cc1cnc(Nc2cnn(CCO)c2)nc1NCc1ccc(S(N)(=O)=O)cc1 [Example I-8] | 0.01 to 0.1 µM | 1 to 10 µM | – |
| COc1ccc(F)c(CNc2ccnc(Nc3cnn(CC(=O)NC(C)C)c3)n2)c1F [Example I-65] | 0.01 to 0.1 µM | 1 to 10 µM | < 0.1 µM |
| Fc1cccc(F)c1CNc1nc(Nc2cnn(C(F)F)c2)ncc1Cl [Example I-224] | 0.1 to 1 µM | 1 to 10 µM | – |
| COC[C@H](C)NC(=O)Cn1cc(Nc2ncc(F)c(NCc3c(F)cc(F)cc3F)n2)cn1 [Example I-71] | 0.01 to 0.1 µM | > 10 µM | – |
| O=C(Cn1cc(Nc2nccc(NCc3c(F)cccc3Cl)n2)cn1)N[C@@H]1C[C@@H]1F [Example I-142] | 0.01 to 0.1 µM | 1 to 10 µM | – |
| Cc1cnc(Nc2cnn(CC(N)=O)c2)nc1NCc1ccccc1S(C)(=O)=O [Example I-434] | 0.1 to 1 µM | 1 to 10 µM | – |
| CC(C)(C)OC(=O)N1CC2(CN(C(=O)Cn3cc(Nc4ncc(Cl)c(NCc5ccccc5)n4)cn3)C2)C1 [Example I-220] | 0.1 to 1 µM | 1 to 10 µM | – |
| CC(C)NC(=O)Cn1cc(Nc2nccc(NCc3c(Cl)ccc(F)c3F)n2)cn1 [Example I-93] | 0.01 to 0.1 µM | 1 to 10 µM | – |
| Fc1cccc(F)c1CNc1nc(Nc2cnn(Cc3ncco3)c2)ncc1Cl [Example I-481] | 0.1 to 1 µM | 1 to 10 µM | – |
| OCCn1cc(Nc2ncc(Cl)c(NCc3cccc(F)c3F)n2)cn1 [Example I-180] | 0.01 to 0.1 µM | 0.1 to 1 µM | – |
| NC(=O)Cn1cc(Nc2ncc(Cl)c(NCc3c(F)cccc3F)n2)cn1 [Example I-240] | 0.01 to 0.1 µM | 1 to 10 µM | – |
| Cc1ccc(F)c(CNc2nc(Nc3cnn(CC(N)=O)c3)ncc2Cl)c1F [Example I-282] | 0.01 to 0.1 µM | 1 to 10 µM | – |
| CN(C)C(=O)Cn1cc(Nc2ncc(Cl)c(NCc3cccc(OCC#N)c3)n2)cn1 [Example I-365] | 0.01 to 0.1 µM | 1 to 10 µM | – |
| Cn1ccnc1Cn1cc(Nc2ncc(Cl)c(NCc3ccccc3)n2)cn1 [Example I-248] | 0.1 to 1 µM | 1 to 10 µM | – |
| [2H]C([2H])(O)C([2H])([2H])n1cc(Nc2ncc(Cl)c(NCc3cccc(F)c3F)n2)cn1 [Example I-233] | 0.1 to 1 µM | 1 to 10 µM | – |
| Cc1cnc(Nc2cnn(CC(=O)N[C@H](C)CO)c2)nc1NCc1c(F)cc(F)cc1F [Example I-35] | ≤ 0.01 µM | 0.1 to 1 µM | – |
| N#CCOc1cccc(CNc2nc(Nc3cnn(CC(N)=O)c3)ncc2Cl)c1 [Example I-362] | 0.1 to 1 µM | 1 to 10 µM | – |
| Fc1cccc(F)c1CNc1nc(Nc2cnn(CC(F)F)c2)ncc1Cl [Example I-469] | 0.1 to 1 µM | 0.1 to 1 µM | – |
| CCOc1ccc(F)c(CNc2nc(Nc3cnn(CC(=O)NC)c3)ncc2Cl)c1F [Example I-269] | 0.01 to 0.1 µM | 1 to 10 µM | – |
| Cc1ccc(F)c(CNc2ccnc(Nc3cnn(CC(=O)N[C@@H](C)CO)c3)n2)c1F [Example I-130] | 0.01 to 0.1 µM | 1 to 10 µM | – |

| SMILES | IC50 [1, 3] | IC50 [2] | IC50 ([1]; read-out: TYK2 IC50) |
| --- | --- | --- | --- |
| CNC(=O)Cn1cc(Nc2ncc(Cl)c(NCc3c(Cl)cccc3Cl)n2)cn1 [Example I-325] | 0.01 to 0.1 µM | 1 to 10 µM | – |
| O=C(Cn1cc(Nc2nccc(NCc3c(F)cc(F)cc3F)n2)cn1)NCC(F)F [Example I-92] | 0.01 to 0.1 µM | 1 to 10 µM | – |
| CS(=O)(=O)c1cccc(CNc2nc(Nc3cnn(CC(=O)NC4CC4)c3)ncc2Cl)c1 [Example I-440] | 0.01 to 0.1 µM | 1 to 10 µM | – |
| O=C(Cn1cc(Nc2nccc(NCc3c(F)cccc3F)n2)cn1)NC1CC1 [Example I-152] | 0.01 to 0.1 µM | 1 to 10 µM | – |
| OCCn1cc(Nc2ncc(F)c(NCc3cccc(F)c3F)n2)cn1 [Example I-170] | 0.1 to 1 µM | 1 to 10 µM | – |
| CS(=O)(=O)Cn1cc(Nc2ncc(Cl)c(NCc3ccccc3)n2)cn1 [Example I-254] | 0.1 to 1 µM | 1 to 10 µM | – |
| OCCn1cc(Nc2ncc(Cl)c(NCc3c(Cl)cccc3Cl)n2)cn1 [Example I-323] | 0.01 to 0.1 µM | 0.1 to 1 µM | – |
| Cn1cc(Nc2nccc(NCc3c(F)cccc3F)n2)cn1 [Example I-312] | 0.1 to 1 µM | > 10 µM | – |
| C[C@@H](CO)NC(=O)Cn1cc(Nc2nccc(NCc3c(F)cncc3F)n2)cn1 [Example I-146] | 0.01 to 0.1 µM | > 10 µM | – |
| CS(=O)(=O)c1ccccc1CNc1nc(Nc2cnn(CC(N)=O)c2)ncc1Cl [Example I-450] | 0.1 to 1 µM | 0.1 to 1 µM | – |
| COc1ccc(F)c(CNc2nc(Nc3cnn(CCOC(C)C)c3)ncc2F)c1F [Example I-394] | 0.1 to 1 µM | > 10 µM | – |
| CC(C)NC(=O)Cn1cc(Nc2nccc(NCc3c(F)cc(F)cc3Cl)n2)cn1 [Example I-94] | 0.01 to 0.1 µM | 1 to 10 µM | – |
| Cc1cnc(Nc2cnn(CC(=O)N3CCOCC3)c2)nc1NCc1c(F)cccc1F [Example I-305] | ≤ 0.01 µM | 0.1 to 1 µM | – |
| Cc1cnc(Nc2cnn(C)c2)nc1NCc1cc(F)cc(F)c1F [Example I-342] | 0.01 to 0.1 µM | 0.01 to 0.1 µM | – |
| O=C(Cn1cc(Nc2nccc(NCc3c(F)cc(F)cc3F)n2)cn1)N[C@@H]1C[C@@H]1F [Example I-102] | ≤ 0.01 µM | 1 to 10 µM | – |
| C[C@H](CO)NC(=O)Cn1cc(Nc2nccc(NCc3c(F)cccc3Cl)n2)cn1 [Example I-106] | ≤ 0.01 µM | 1 to 10 µM | – |
| CC(C)N(C)C(=O)Cn1cc(Nc2ncc(F)c(NCc3cccc(OC(F)F)c3)n2)cn1 [Example I-56] | 0.01 to 0.1 µM | > 10 µM | – |
| Cc1cnc(Nc2cnn(CC(F)F)c2)nc1NCc1ccc(S(N)(=O)=O)cc1 [Example I-465] | 0.1 to 1 µM | 1 to 10 µM | – |
| CCOC(=O)Cn1cc(Nc2ncc(Cl)c(NCc3ccccc3)n2)cn1 [Example I-225] | 0.1 to 1 µM | 1 to 10 µM | – |
| CS(=O)(=O)c1ccc(F)c(CNc2nc(Nc3cnn(CC(N)=O)c3)ncc2F)c1 [Example I-116] | 0.01 to 0.1 µM | 1 to 10 µM | – |
| Cc1cnc(Nc2cnn(C)c2)nc1NCc1cccc(CNS(C)(=O)=O)c1 [Example I-402] | 0.1 to 1 µM | 1 to 10 µM | – |
| CS(=O)(=O)c1ccc(F)cc1CNc1nc(Nc2cnn(CC(=O)NC3CC3)c2)ncc1Cl [Example I-74] | 0.01 to 0.1 µM | 0.1 to 1 µM | – |
